Results as given in US10472677B2, “Translational dysfunction based therapeutics” (Translational Therapeutics, Inc., priority 2005, dated 2019).
“Also recorded” adds a separate entry of the source.

How the values were obtained:
AML-M5 progenitor cells = assay: clonogenic assay, primary CD34+ progenitors; format: cell-based; conditions: Homo sapiens, 336 h; 14 days; read-out: apparent IC50 colony formation
Source text: (§1) Acute myelogenous leukemia (AML) M1, M5, and normal bone marrow specimens were isolated from patients and processed as described. Primary AML cells were obtained from peripheral blood of patients at the Markey Cancer Center, University of Kentucky Medical Center (Lexington, Ky.). Normal bone marrow was obtained as waste material after pathological analysis, surgical marrow harvest, or from the National Disease Research Interchange (Philadelphia). All tissues were obtained with the approval of the Institutional Review Board and appropriate informed consent. Frozen CD34^+ progenitor cells were thawed in Iscove's modified Dulbecco's (IMD) medium supplemented with 10% (vol/vol) FBS. […] Colonies with >20 cells were counted manually and experiments were repeated four times.

FaDu cells = assay: Western blot of FaDu cells treated in culture; format: cell-based, human; conditions: 48 hours
Procedure: FaDu cells were grown in culture as described previously and treated with Ribavirin for 48 hours prior to preparation of protein extracts and western blot analysis.

[1] = tested on: polysomal loading of eIF4E-sensitive mRNAs; assay: polysomal loading of mRNAs, ribosome purification and quantitative RT-PCR; format: cell-based, mouse
Procedure: Cell pellets (500 mg) were homogenized in 1 ml of ice cold lysis buffer (20 mM Hepes/10 mM magnesium acetate/100 mM potassium acetate, pH 7.5) supplemented with protease inhibitors (EDTA-free Complete, Roche) and 400 units/ml of SUPERasine (Ambion), and incubated for 30 min on ice with occasional vortexing. Lysates were sedimented at 3,000×g for 10 min at 4° C. to pellet nuclei and cell debris. Supernatants were sedimented at 12,000×g for 20 min at 4° C. to pellet mitochondria. Cleared supernatants were then sedimented at 50,000 rpm (SW 50.1 rotor, Beckman) for 50 min at 4° C. to pellet ribosomes. Ribosomal pellets were resuspended in 200 μl of ice-cold lysis buffer and layered on top of 10-40% sucrose gradient buffered with the lysis buffer, and centrifuged at 50,000 rpm for 80 min at 4° C. RNA content of fractions was ascertained by using the ratio of absorbance at 260:280 nm. […] RNA from each fraction was quantified by spectrophotometry and 40 ng was converted into cDNA by using the Sensiscript reverse transcription kit (Qiagen, Valencia, Calif.). Quantitative real-time PCR was carried out in triplicate by using the QuantiTect SYBR green real-time PCR Kit (Qiagen) in an Opticon thermal cycler (MJ Research, Waltham, Mass.). […] Obtained real-time PCR profiles were analyzed by using Opticon software (MJ Research).

eIF4E (G4E) = target: T1, eIF4E (G4E) (UniProt P06654+P63073); assay: electrospray mass spectrometry of purified G4E with Ribavirin and GTP; format: binding, mouse; conditions: mixture of Ribavirin and GTP, fourfold excess
T1 construct: made in house; host or cells: E. coli BL21 (DE-3); construct a gift of Gerhard Wagner
Procedure: FIG. 10. […] Mass spectra were recorded using the Agilent Technologies 1100 LC/MSD integrated liquid chromatograph single quadrupole electrospray mass spectrometer (ES-MS) operating in positive ion mode. […]; The solution was electrosprayed directly at […] using nebulizer pressure of 20 psi, drying nitrogen gas at 200° C. and 10 L/min, and capillary voltage of 4.5 kV. (a) ES-MS spectrum plotting ion abundance in 20 uL of the above mixture as a function of the mass/charge ratio is shown. […]. Thus, obtaining affinities from mass spectrometry data is confounded by these differences in ionization.

eIF4E W56A = target: T2, eIF4E W56A (Mus musculus, UniProt P63073, W56A); assay: tryptophan fluorescence quenching titration, cap-binding site mutant; conditions: relative to wild-type eIF4E
T2 construct: made in house
Procedure: For fluorescence titrations, mouse eIF4E, which differs from human eIF4E by four nonconserved amino acids, was produced as described. For NMR spectroscopy, mouse eIF4E was expressed as a fusion with the B1 domain of protein G (G4E, kind gift of Gerhard Wagner, Harvard University, Cambridge, Mass.), in BL21 (DE-3) cells by induction with 0.8 mM isopropyl-β-D-thiogalactopyranoside at 18° C. for 20 h in M9 minimal media containing 1 g/l ^15NH4Cl as the sole nitrogen source (Cambridge Isotopes). […] Eluate was dialyzed extensively against 0.1 M NaCl/50 mM Na2PO4 (pH 6.5)/5 mM DTT at 4° C. to produce apo-G4E, as verified by using NMR spectroscopy and fluorescence titrations. […]
Fluorescence measurements were performed by using a home-built fluorimeter, as described. All titrations were performed in 0.3 M NaCl/10 mM Na2PO4 (pH 7.5)/1 μM zinc in 0.3×0.3 cm^2 fluorescence cuvette (Hellma), by using eIF4E concentration of 2 μM. […] Corrected relative fluorescence intensities were normalized, and fluorescence quenching curves were fit to a heuristic single-site-binding expression: I/I0=Kd^n/(x^n+Kd^n) where x is ligand concentration, Kd is the apparent dissociation constant, and n is the Hill coefficient.

FaDu tumors in nude mice = format: in vivo
Procedure: Female 5- to 7-week-old athymic NCr-nu/nu mice were obtained from Taconic Farms. Human FaDu cells, derived from a hypopharyngeal squamous cell carcinoma, were obtained from the American Type Culture Collection. Mice were inoculated s.c. into the right flank with 0.5×10^6 cells in 50 μl PBS, and were randomly segregated into two groups of 10 mice each. After 1 week of engraftment, treatment was administered orally each day at a dose of 40 μg/kg Ribavirin. Tumor size was ascertained by measuring tumor diameter, and statistical significance was ascertained by using a paired t test.

[2] = tested on: normal bone marrow myeloid progenitors; assay: clonogenic assay, primary CD34+ progenitors; format: cell-based, human; conditions: micromolar concentrations
Source text: as §1

AML-M1 progenitor cells = assay: clonogenic assay, primary CD34+ progenitors; format: cell-based, human; conditions: at ca. 1 uM / similar concentrations
Source text: as §1

T2 sequence (P63073 whole entry W56A): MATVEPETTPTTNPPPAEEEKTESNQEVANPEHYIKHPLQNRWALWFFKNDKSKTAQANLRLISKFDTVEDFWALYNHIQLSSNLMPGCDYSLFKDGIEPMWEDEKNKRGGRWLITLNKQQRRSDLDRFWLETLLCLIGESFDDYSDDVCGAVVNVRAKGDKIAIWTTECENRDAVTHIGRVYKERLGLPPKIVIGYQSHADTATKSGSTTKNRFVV
T1 sequence (P06654+P63073 fused): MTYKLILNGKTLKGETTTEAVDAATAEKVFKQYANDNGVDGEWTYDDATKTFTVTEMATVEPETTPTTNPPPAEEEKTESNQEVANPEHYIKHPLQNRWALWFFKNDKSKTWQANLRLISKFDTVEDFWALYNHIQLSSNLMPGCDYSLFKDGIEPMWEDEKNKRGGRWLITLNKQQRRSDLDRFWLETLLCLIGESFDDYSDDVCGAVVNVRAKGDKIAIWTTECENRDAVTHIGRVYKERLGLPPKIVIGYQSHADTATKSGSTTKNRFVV

With `NC(=O)c1ncn([C@@H]2O[C@H](CO)[C@@H](O)[C@H]2O)n1` [Ribavirin, 1-β-D-ribofuranosyl-1,2,4-triazole-3-carboxamide] the IC50 (AML-M5 progenitor cells) was roughly 1 µM, the “Actin and eIF4E protein levels” value (FaDu cells) was “remain unchanged” and the “protein level of NBS1, Cyclin D1 and ODC” value (FaDu cells) was “decreased”. For the same compound, the “decrease of polysomal loading of VEGF and ODC mRNAs” value [1] was > 1,000 fold, the “polysomal loading of cyclin D1 mRNA” value ([1]; 1 μM) was “no significant effect” and the “binding to eIF4E observed by mass shift” value (eIF4E (G4E)) was “specific binding”. For the same compound, the “reduction of Ribavirin affinity by W56A mutation” value (eIF4E W56A) was 14 fold, the “mean tumor volume, fold less than untreated control” value (FaDu tumors in nude mice; 40 ug/kg orally daily, after 20 days, P=0.023) was 6 fold and the mean body concentration (FaDu tumors in nude mice; 40 ug/kg orally each day) was “ca. 1 uM”. The “colony formation of normal bone marrow progenitors” value [2] was “no effect; also recorded: lack of an effect” and the “colony formation of AML-M1 progenitors” value (AML-M1 progenitor cells) was “no effect; also recorded: failed to repress colony formation”.
